Laboratory results from patent publication US7687465B2, “Therapeutic cancer vaccine” (Kraeftens Bekaempelse, priority 2003, dated 2010).

Tested on: peripheral blood T cells or TIL from melanoma patients
Experiment: ELISPOT IFN-γ secretion assay, T-cell responses against HLA-A2 binding ML-IAP peptides
Format: cell-based, human
Experimental: Peripheral blood was obtained from melanoma patients before vaccination and subsequent to a series of vaccinations. In order to identify peptide-specific T-cell precursors, peripheral blood lymphocytes (PBL) were used directly in the ELISPOT (designated direct ELISPOT). However, to extend the sensitivity of the ELISPOT assay, PBL were stimulated once in vitro prior to analysis^17,18. At day 0, PBL or crushed lymph nodes were thawed and plated in 2 ml/well at a concentration of 2×10^6 cells in 24-well plates (Nunc, Denmark) in X-vivo medium (Bio Whittaker, Walkersville, Md.), 5% heat-inactivated human serum, and 2 mM of L-glutamine in the presence of 10 μM of peptide. Two days later 20 IU/ml recombinant interleukin-2 (IL-2) (Chiron, Ratingen, Germany) was added to the cultures. The cultured cells were tested for reactivity in the ELISPOT on day 8.
The ELISPOT assay used to quantify peptide epitope specific interferon-7 releasing effector cells was adapted from Lalvani et al.^37, and Scheibenbogen et al.^38. Briefly, nitrocellulose bottomed 96-well plates (MultiScreen MAIP N45, Millipore) were coated overnight at 4° C. with 7.5 μg/ml of anti-IFN-γ antibody (1-D1K, Mabtech, Sweden) in 75 μl sterile PBS. Subsequently, the wells were washed six times with PBS, and non-specific binding were blocked by X-vivo medium for 2 hours at 37° C. Freshly isolated PBL or cells, which had been stimulated once in vitro, were added in duplicates at different cell concentrations (from 10^6 to 10^5 cells per well for non-stimulated PBL, and from 3×10^5-3×10^4 cells per well for PBL which had been stimulated once in vitro), in 100 μl X-vivo medium. Peptides were then added to each well to a final concentration of 2 μM and incubated overnight at 37° C.
The following day, media was discarded and the wells were washed (six times) with PBS containing 0.05% Tween (PBS/Tw) before the addition of biotinylated secondary antibody (7-B6-1-Biotin, Mabtech) at 0.5 μg/ml in 75 μl PBS containing 1% BSA and 0.02% NaN3 (PBS/BSA). The plates were incubated at room temperature for 2 hours. The wells were washed (six times) with PBS/Tw. Then 75 μl of Avidin-enzyme conjugate (AP-Avidin, Calbiochem) diluted 1:2000 in PBS/BSA were added to each well and incubated for 1 hour. The enzyme substrate NBT/BCIP was prepared freshly according to the manufacturers' instructions (Gibco, code 18280-016) and 75 μl were added to each well and incubated for 5-10 min. The reaction was terminated by washing with tap-water upon the emergence of dark purple spots. The spots were then counted using the AlphaImager System (Alpha Innotech, San Leandro, Calif., USA) and the peptide specific CTL frequency could be calculated as the number of spot-forming cells.
To extend the sensitivity of the ELISPOT assay, PBL were stimulated once in vitro prior to analysis^17,18. At day 0, PBL or crushed lymph nodes were thawed and plated in 2 ml/well at a concentration of 2×10^6 cells in 24-well plates (Nunc, Denmark) in X-vivo medium (Bio Whittaker, Walkersville, Md.), 5% heat-inactivated human serum, and 2 mM of L-glutamine in the presence of 10 μM of peptide. Two days later 20 IU/ml recombinant interleukin-2 (IL-2) (Chiron, Ratingen, Germany) was added to the cultures. The cultured cells were tested for reactivity in the ELISPOT on day 12.
The ELISPOT assay used to quantify peptide epitope-specific interferon-γ-releasing effector cells was performed as described previously^19. Briefly, nitrocellulose bottomed 96-well plates (MultiScreen MAIP N45, Millipore, Hedehusene, Denmark) were coated with anti-IFN-7 antibody (1-D1K, Mabtech, Nacka, Sweden). The wells were washed, blocked by X-vivo medium, and cells were added in duplicates at different cell concentrations. Peptides were then added to each well and the plates were incubated overnight. The following day, media was discarded and the wells were washed prior to addition of biotinylated secondary antibody (7-B6-1-Biotin, Mabtech). […]

## CC(C)C[C@H](NC(=O)[C@@H](N)CCCNC(=N)N)C(=O)N[C@@H](CCC(N)=O)C(=O)N[C@@H](CCC(=O)O)C(=O)N[C@@H](CCC(=O)O)C(=O)N[C@@H](CCCNC(=N)N)C(=O)N[C@H](C(=O)N[C@@H](CS)C(=O)N[C@@H](CCCCN)C(=O)N[C@H](C(=O)O)C(C)C)[C@@H](C)O [ML-IAP245]
TIL and PBL from melanoma patients, in words
  strength of spontaneous CTL response: Weaker spontaneous responses
TIL from melanoma patients (n=22), stimulated once in vitro with peptide, number of samples
  TIL samples in which a response against the peptide was detected: five
Peripheral blood T cells from melanoma patients (n=7), stimulated once in vitro with peptide, number of samples
  PBL samples in which a response against the peptide was detected: one
